The test system of one series is B16-F10 melanoma cells. Description: Melanoma model of lung metastasis in C57BL/6 mice. As to conditions: total dose 140 mg/kg; for Inhibition of melanoma metastasis in lung: s.c. Day 1, 7, 8, 9, 10, 11, 14, 20 mg/kg, day 21; for Animals (group of six) without melanoma metastasis: s.c. It is filed as in vivo, mouse. Here is the method:
B16-F10 cells (10,000/0.1 ml PBS) were injected i.v. into syngeneic mice. The number of macroscopic lung metastases was determined 21 days later.
C57BL/6 mice were injected with 100,000 B16-F10 melanoma cells into the mice via the tail vein and treatment started 24 hr later with subcutaneous injections (s.c.) of compounds administered according to the following scheme: 1, 7, 8, 9, 10, 11 and 14th days in dose 20 mg/kg. Mice in the control group were similarly given doses of 0.1 mL of water with DMSO (DMSO final concentration <1%). Twenty-one days later, all mice were anesthetized with ketamine/xylazine and euthanized, the mice were sacrificed and the black melanoma nodules on the lungs were measured. In each experiment, mice were weighed twice weekly.

A further series concerns MG-22A (mouse hepatoma). Briefly: In vitro cytotoxicity, MTT test. The following applies: MTT, 72 h, read-out: Cytotoxicity IC50, MG-22A. The series is classed as cell-based. In outline:
(§1)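 Cells seeded at 2-9·10^4 cells/mL with compounds added immediately, then incubated 72 h at 37 °C, 5% CO2 against untreated controls. Survival measured by MTT (3 h), formazan dissolved in DMSO and absorbance read at 540 nm.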

For series [1], the system named is HT-1080 (human fibrosarcoma). Briefly: In vitro cytotoxicity, MTT test. The series is classed as cell-based. The following applies: HT-1080, MTT, 72 h, read-out: Cytotoxicity IC50, HT-1080. In outline: as §1
A further series has as its system CCL-8 (mouse sarcoma). Briefly: In vitro cytotoxicity, MTT test. It is filed as cell-based. The following applies: MTT, 72 h, read-out: Cytotoxicity IC50, CCL-8. In outline: as §1
For orientation: Tetrazolium dyes change colour on reduction, which living cells bring about.

In series [2] the test system is HepG2 (human hepatocellular carcinoma). Briefly: In vitro cytotoxicity, MTT test. The following applies: HepG2, MTT, 72 h, read-out: Cytotoxicity IC50, HepG2. The series is classed as cell-based. In outline:
as §1

Series [3] has as its system A549 (human lung carcinoma). Description: In vitro cytotoxicity, MTT test. As to conditions: Homo sapiens, A549, 72 h, MTT, 72 h; read-out: Cytotoxicity IC50, A549. It is filed as cell-based. In a few lines:
as §1

In series [4] the test system is MCF-7 (human breast adenocarcinoma, estrogen-positive). Briefly: In vitro cytotoxicity, MTT test. It is filed as cell-based. As to conditions: MCF7, MTT, 72 h, read-out: Cytotoxicity IC50, MCF-7. In a few lines:
as §1

Series [5] relates to MES-SA (human uterus sarcoma). Briefly: In vitro cytotoxicity, MTT test. The series is classed as cell-based. The following applies: MTT, 72 h, read-out: Cytotoxicity IC50, MES-SA. In a few lines: as §1
In series [6] the test system is SH-SY5Y (human neuroblastoma). Briefly: In vitro cytotoxicity, MTT test. As to conditions: Homo sapiens, SH-SY5Y, 72 h, MTT, read-out: Cytotoxicity IC50, SHSY5Y. The series is classed as cell-based. In outline:
as §1

For series [7], the system named is MDA-MB-435s (human melanoma). Description: In vitro cytotoxicity, MTT test. The series is classed as cell-based. As to conditions: MTT, 72 h, read-out: Cytotoxicity IC50, MDA-MB-435s. In outline: as §1
The test system of the next series is 4T1 cells. Briefly: Orthotropic model of 4T1 murine metastatic breast cancer in BALB/c mice. It is filed as in vivo, mouse. The following applies: 4T1 orthotropic; for Increase of spleen weight (splenomegaly) compared with healthy animals: control with tumors 316%. Here is the method:
Orthotropic model of mouse breast cancer was developed by injection of 4T1 cells in the mammary fat pad of syngeneic BALB/c mice. In this case, 4T1 cells develops solid tumors following by metastasis in lung, liver, lymph nodes, and brain (Aslakson at al., Cancer Res, 1992, 52, 1399-1405).
In our experiments seven-week-old female BALB/c mice were injected orthotopically into the fourth mammary fat pad with 10^5 4T1 cells suspended in 0.01 mL of PBS on day zero of the study. The compounds dissolved in DMSO, diluted with 0.1 mL water (DMSO final concentration 1%) and injected s.c. The compounds were administered at 1, 2, 3, 11 days, dose 20 mg/kg. Mice in the untreated group were similarly given four doses of 0.1 mL of water with DMSO. Tumor volume (tumor volume V=[…], wherein “a” is the maximal, and “b”—the minimal tumor diameter) was calculated twice per week. The mice were examined every other day on appearance, weight and behavior. The mice were sacrificed at day 16 of the experiment by decapitation under ketamine/xylazine anesthesia. After euthanasia, the mice were dissected. The primary tumor, liver and spleen were removed, weighed and studied. All metastases in the internal organs were described.

A further series deals with malignant tumor cells. Description: In vitro cytotoxicity on monolayer tumor cell lines (panel, summary in words). It is filed as cell-based. The following applies: summary of Table 1. The protocol:
Anticancer activity of selenopheno[h]chromenes was tested in vitro using cytotoxicity assay. Thus, monolayer tumor cell lines MDA-MB-435s (human melanoma), MCF-7 (human breast adenocarcinoma, estrogen-positive), MES-SA (human uterus sarcoma), HT-1080 (human fibrosarcoma), A549 (human lung carcinoma), SH-SY5Y (human neuroblastoma), CCL-8 (mouse sarcoma), MG-22A (mouse hepatoma), and HepG2 (human hepatocellular carcinoma) were cultured in standard medium DMEM (Dulbecco's modified Eagle's medium) (“Sigma”) supplemented with 10% fetal bovine serum (“Sigma”). About 2-9·10^4 cells/mL (depending on line nature) were placed in 96-well plates immediately after compounds were added to the wells. Untreated cells were used as a control. The plates were incubated for 72 h, 37° C., 5% CO2. The number of surviving cells was determined using 3-(4,5-dimethylthiazol-2-yl)-2,5-diphenyltetrazolinium bromide (MTT). MTT-test: after incubating culture medium was removed and 200 μL fresh medium with 10 mM HEPES was added in each well of the plate, than 20 μL MTT (2 mg/mL in HBSS) was added. After incubation (3 hr, 37° C., 5% CO2), the medium with MTT was removed and 200 μL DMSO were added at once to each sample. The samples were tested at 540 nm on Anthos HT II photometer.

The IC50 is the concentration at which inhibition is half-maximal.

For the compound `COC(=O)c1cc2ccc3c(Br)c(CN4CCN(C)CC4)[se]c3c2oc1=O` [Compound I-10, Methyl 7-bromo-8-((4-methylpiperazin-1-yl)methyl)-2-oxo-2H-selenopheno[3,2-h]chromene-3-carboxylate], the “Inhibition of melanoma metastasis in lung” value in the series with B16-F10 melanoma cells stood at 74%. Also, the “Animals (group of six) without melanoma metastasis” value with B16-F10 melanoma cells is “five”. In addition, the IC50 in the series with MG-22A (mouse hepatoma) was 64 ± 5 µM; in series [1], 170 ± 9 µM; with CCL-8 (mouse sarcoma) it was 94 ± 7 µM; in [2], 187 ± 10 µM; in series [3], 187 ± 10 µM; in series [4], 150 ± 9 µM. The figures for the IC50 in series [5], in [6] and in [7] were more than 187 µM, more than 117 µM and more than 187 µM, respectively. In addition, the “Formation of metastases” value in the series with 4T1 cells is “dramatically reduces the formation of metastases”. In addition, the “Increase of spleen weight (splenomegaly) compared with healthy animals” value in the series on 4T1 cells is 256%. The “Cytotoxicity on cancer cell lines” value in the series with malignant tumor cells is “low toxic to the cancer cell lines”.
As to `O=C(O)c1cc2ccc3c(Br)c(C4(O)CCCCC4)[se]c3c2oc1=O` [Compound I-11, 7-Bromo-8-(1-hydroxycyclohexyl)-2-oxo-2H-selenopheno[3,2-h]chromene-3-carboxylic acid], the “Inhibition of melanoma metastasis in lung” value in the series on B16-F10 melanoma cells is 96%. The “Animals (group of six) without melanoma metastasis” value with B16-F10 melanoma cells is given as “four”. The IC50 was more than 122 µM in the series with MG-22A (mouse hepatoma); 77 ± 5 µM in series [1]; 149 ± 9 µM with CCL-8 (mouse sarcoma); more than 213 µM in series [2]; more than 213 µM in series [3]; 213 ± 6 µM in series [4]. Further, the IC50 in series [5] is 206 ± 10 µM; in [6], more than 117 µM; in [7] it was 208 ± 13 µM. In addition, the “Formation of metastases” value in the series with 4T1 cells is listed as “dramatically reduces the formation of metastases”. Also, the “Increase of spleen weight (splenomegaly) compared with healthy animals” value with 4T1 cells was determined as 198%. For the same compound, the “Cytotoxicity on cancer cell lines” value with malignant tumor cells is “complete loss of cytotoxicity”.

For the origin of these results see US10561681B2, “Antimetastatic 2H-selenopheno[3,2-h]chromenes, synthesis thereof, and methods of using same agents” (Latvian Institute of Organic Synthesis, priority 2016, dated 2020).
